For the assay, the target named is Kv7.2/7.3 (Homo sapiens, UniProt O43525+O43526). Briefly: Kv7.2/7.3 Activation Assay, QPatch single concentration screen. The class given is cell-based. The conditions noted are these: Kv7.2/Kv7.3 co-expressing HEK cells, compound concentration 3 μM, steady-state current at end of 2 s pulse to −30 mV. The arrangement: host or cells: HEK cells, tetracycline-inducible expression; key: 1.2-2.9 (+); 3-3.9 (++); >4 (+++) fold increase over baseline; O represents open channel at holding potential. Here is the method:
Kv7.2/7.3 Activation Assay
The ability of compounds to potentiate K-currents in Kv7.2/7.3 containing HEK cells was assessed using planar patch-clamp on the QPatch automated screening platform.
The hKv7.2/7.3 cell line was obtained from Chantest (Cleveland, Ohio 44128) cat. #CT6147. These HEK cells will express the Kv7.2/7.3 ion channels when induced.
Cells were maintained in a media containing DMEM/F12; 50/50 (GIBCO cat. #11330), 10% Fetal Bovine Serum (FBS) (GIBCO cat. #26140), 100 units/mL Penicillin-Streptomycin (GIBCO cat. #15140), 0.005 mg/mL Blasticidin (INVIVOGEN cat. #ant-b1-1), 0.5 mg/mL Geneticin (GIBCO cat. #10131), 0.1 mg/mL Zeocin (GIBCO cat. #R25001). Cells used in the electrophysiology assay were maintained in a media without Blasticidin, Geneticin and Zeocin for 2 days and channel expression was induced by adding tetracycline (BIOLINE cat. #BIO-87030) at a final concentration of 1 mg/mL. Cells were grown in T-175 flask to ˜75% confluency. Currents were recorded 24 hours after channel induction.
Test compounds were prepared by performing serial dilutions on a Biomek NX^P (BECKMAN COULTER). Final dilutions were made in external recording solution with a final DMSO concentration of 0.1% DMSO. For single concentration screens each plate had 10 μM retigabine as a positive control and 0.1% DMSO as a negative control.
On the day of the experiment cells were washed with Hank's Balanced Salt Solution (HBBS) (GIBCO cat. #14175) and harvested with Tryple (GIBCO cat. #12604). Cells were then centrifuged at 2000 rpm for 5 minutes and resuspended in CHO-S-SFM (GIBCO cat. #12052) at ˜3×10^6 cells/mL. Cells were stirred for 30 minutes before experiments were started. External recording solution contained (in mM): NaCl (145), KCl (4), CaCl2 (2), MgCl2 (1), HEPES (10) and Glucose (10); pH was adjusted to 7.4 with NaOH and the osmolarity was adjusted to 300-305 mOsM with sucrose if necessary. Internal solution contained (in mM): KCl (125), KF (10), EGTA (5), Na2ATP (5), MgCl2 (3.2), HEPES (5); pH was adjusted to 7.2 with KOH and the osmolarity was adjusted to 298-302 mOsM with sucrose.
Potassium channel activity was measured on the QPatch HTX (Sophion Bioscience) using QPlates with 48-wells/plate. Each cell was taken as an independent experiment and only one compound was tested per well. Potassium channel activity was elicited by holding at −80 mV and stepping to −30 mV for 2 s followed by a 100 ms pulse to −120 mV.
Single Concentration Screen:
Baseline conditions were obtained by recording 5 sweeps in the external solution only, this was repeated for three applications of the external solution. The effect of test compounds on elicited current was then assessed by recording 5 sweeps in the presence of a 3 μM compound solution. The steady-state current at the end of the 2 s pulse to −30 mV was measured to determine the fold increase from baseline.
On to `CC1(n2c(NC(=O)CC(C)(C)C(F)(F)F)nc3cc(F)cc(C#N)c32)CCC1` [Example 340, N-(7-cyano-5-fluoro-1-(1-methylcyclobutyl)-1H-benzo[d]imidazol-2-yl)-4,4,4-trifluoro-3,3-dimethylbutanamide], for which the “Kv7.2/7.3 Activity: increase over baseline in current” value (“Kv7.2/7.3 Activity: increase” for short) is “+ (1.2-2.9 (+))”.

Turning to `CC(C)(C)n1c(NC(=O)CC(C)(C)C(F)(F)F)nc2c(F)cc(C#N)cc21` [Example 378, N-(1-(tert-butyl)-6-cyano-4-fluoro-1H-benzo[d]imidazol-2-yl)-4,4,4-trifluoro-3,3-dimethylbutanamide], the “Kv7.2/7.3 Activity: increase” value is listed as “+++ (>4 (+++) fold increase over baseline)”.

As for `CC(C)(CC(=O)Nc1nc2c(F)cc(C#N)cc2n1C12CC(C1)C2)C(F)(F)F` [Example 431, N-(1-(bicyclo[1.1.1]pentan-1-yl)-6-cyano-4-fluoro-1H-benzo[d]imidazol-2-yl)-4,4,4-trifluoro-3,3-dimethylbutanamide], the “Kv7.2/7.3 Activity: increase” value is recorded as “++ (3-3.9 (++))”.

As for `CC(O)(CC(=O)Nc1nc2cccc(C#N)c2n1C1(C)CCC1)c1ccccc1` (single isomer, unassigned) [Example 375, N-(7-cyano-1-(1-methylcyclobutyl)-1H-benzo[d]imidazol-2-yl)-3-hydroxy-3-phenylbutanamide], the “Kv7.2/7.3 Activity: increase” value was “+ (1.2-2.9 (+))”.

Regarding `[2H]C([2H])([2H])C(CC(=O)Nc1nc2c(F)cc(C(C)(C)O)cc2n1C1CCC1)(C([2H])([2H])[2H])C([2H])([2H])[2H]` [Example 342, N-(1-cyclobutyl-4-fluoro-6-(2-hydroxypropan-2-yl)-1H-benzo[d]imidazol-2-yl)-3,3-bis(methyl-d3)butanamide], the “Kv7.2/7.3 Activity: increase” value is “+++ (>4 (+++) fold increase over baseline)”.

In the case of `CC(O)(CC(=O)Nc1nc2ccc(OC(F)F)cc2n1C(C)(C)C)c1ccccc1` (single isomer, unassigned) [Example 418, N-(1-(tert-butyl)-6-(difluoromethoxy)-1H-benzo[d]imidazol-2-yl)-3-hydroxy-3-phenylbutanamide], the “Kv7.2/7.3 Activity: increase” value is “++ (3-3.9 (++))”.

In the case of `CC(C)(CC(=O)Nc1nc2ccc(C#N)cc2n1C(C)(C)C)C1CC1` [Example 354, N-(1-(tert-butyl)-6-cyano-1H-benzo[d]imidazol-2-yl)-3-cyclopropyl-3-methylbutanamide], the “Kv7.2/7.3 Activity: increase” value is reported as “++ (3-3.9 (++))”.

For the compound `COc1cc(F)c2nc(NC(=O)CC(C)(C)C(F)(F)F)n(C3(C)CCC3)c2c1` [Example 433, 4,4,4-trifluoro-N-(4-fluoro-6-methoxy-1-(1-methylcyclobutyl)-1H-benzo[d]imidazol-2-yl)-3,3-dimethylbutanamide], the “Kv7.2/7.3 Activity: increase” value is given as “++ (3-3.9 (++))”.

For the compound `CC(O)(CC(=O)Nc1nc2c(F)cc(C#N)cc2n1C(C)(C)C)c1ccccc1F` (single isomer, unassigned) [Example 348, N-(1-(tert-butyl)-6-cyano-4-fluoro-1H-benzo[d]imidazol-2-yl)-3-(2-fluorophenyl)-3-hydroxybutanamide], the “Kv7.2/7.3 Activity: increase” value is listed as “O”.

Take `CC(O)(CC(=O)Nc1nc2cc(F)c(C#N)cc2n1C1(C)CCC1)c1ccccc1F` (single isomer, unassigned) [Example 373, N-(6-cyano-5-fluoro-1-(1-methylcyclobutyl)-1H-benzo[d]imidazol-2-yl)-3-(2-fluorophenyl)-3-hydroxybutanamide]: the “Kv7.2/7.3 Activity: increase” value is given as “++ (3-3.9 (++))”.

Take `CC(C)(CC(=O)Nc1nc2ccc(OC(F)F)cc2n1C1(C)CCC1)C1CC1` [Example 434, 3-cyclopropyl-N-(6-(difluoromethoxy)-1-(1-methylcyclobutyl)-1H-benzo[d]imidazol-2-yl)-3-methylbutanamide]: the “Kv7.2/7.3 Activity: increase” value is on record as “+++ (>4 (+++) fold increase over baseline)”.

The record behind these values is US10851067B2, “Kv7 channel activators compositions and methods of use” (Knopp Biosciences LLC, priority 2018, dated 2020).
